Test results as given in ChEMBL document CHEMBL1157984, “Tsugicoline E, a new polyoxygenated protoilludane sesquiterpene from the fungus laurilia tsugicola1” (J Nat Prod, 1999).
Activity calls are given as the source filed them.

How the values were obtained:
Assay type in all cases: functional, organism-based
[1] = tested on: Saccharomyces cerevisiae; test: Antimicrobial activity against Saccharomyces cerevisiae at 100 ug/disk
[2] = tested on: Bacillus cereus; test: Antimicrobial activity against Bacillus cereus at 100 ug/disk
[3] = tested on: Bacillus subtilis; test: Antimicrobial activity against Bacillus subtilis at 100 ug/disk

Measured: Activity

CC1(C)C[C@H]2[C@H](O)[C@]3(O)CO[C@]4(O)[C@@H](O)[C@@](C)([C@H]34)[C@H]2C1
inactive: [1] | [2] | [3]
